Source: ChEMBL document CHEMBL1641590, “Identification of novel ASK1 inhibitors using virtual screening” (Bioorg Med Chem, 2011)

target: T1, Mitogen-activated protein kinase kinase kinase 5 (Homo sapiens, UniProt Q99683); test: Inhibition of ASK1 assessed as phosphorylated fluorescent peptide by mobility shift assay
T1 sequence (Q99683 whole entry): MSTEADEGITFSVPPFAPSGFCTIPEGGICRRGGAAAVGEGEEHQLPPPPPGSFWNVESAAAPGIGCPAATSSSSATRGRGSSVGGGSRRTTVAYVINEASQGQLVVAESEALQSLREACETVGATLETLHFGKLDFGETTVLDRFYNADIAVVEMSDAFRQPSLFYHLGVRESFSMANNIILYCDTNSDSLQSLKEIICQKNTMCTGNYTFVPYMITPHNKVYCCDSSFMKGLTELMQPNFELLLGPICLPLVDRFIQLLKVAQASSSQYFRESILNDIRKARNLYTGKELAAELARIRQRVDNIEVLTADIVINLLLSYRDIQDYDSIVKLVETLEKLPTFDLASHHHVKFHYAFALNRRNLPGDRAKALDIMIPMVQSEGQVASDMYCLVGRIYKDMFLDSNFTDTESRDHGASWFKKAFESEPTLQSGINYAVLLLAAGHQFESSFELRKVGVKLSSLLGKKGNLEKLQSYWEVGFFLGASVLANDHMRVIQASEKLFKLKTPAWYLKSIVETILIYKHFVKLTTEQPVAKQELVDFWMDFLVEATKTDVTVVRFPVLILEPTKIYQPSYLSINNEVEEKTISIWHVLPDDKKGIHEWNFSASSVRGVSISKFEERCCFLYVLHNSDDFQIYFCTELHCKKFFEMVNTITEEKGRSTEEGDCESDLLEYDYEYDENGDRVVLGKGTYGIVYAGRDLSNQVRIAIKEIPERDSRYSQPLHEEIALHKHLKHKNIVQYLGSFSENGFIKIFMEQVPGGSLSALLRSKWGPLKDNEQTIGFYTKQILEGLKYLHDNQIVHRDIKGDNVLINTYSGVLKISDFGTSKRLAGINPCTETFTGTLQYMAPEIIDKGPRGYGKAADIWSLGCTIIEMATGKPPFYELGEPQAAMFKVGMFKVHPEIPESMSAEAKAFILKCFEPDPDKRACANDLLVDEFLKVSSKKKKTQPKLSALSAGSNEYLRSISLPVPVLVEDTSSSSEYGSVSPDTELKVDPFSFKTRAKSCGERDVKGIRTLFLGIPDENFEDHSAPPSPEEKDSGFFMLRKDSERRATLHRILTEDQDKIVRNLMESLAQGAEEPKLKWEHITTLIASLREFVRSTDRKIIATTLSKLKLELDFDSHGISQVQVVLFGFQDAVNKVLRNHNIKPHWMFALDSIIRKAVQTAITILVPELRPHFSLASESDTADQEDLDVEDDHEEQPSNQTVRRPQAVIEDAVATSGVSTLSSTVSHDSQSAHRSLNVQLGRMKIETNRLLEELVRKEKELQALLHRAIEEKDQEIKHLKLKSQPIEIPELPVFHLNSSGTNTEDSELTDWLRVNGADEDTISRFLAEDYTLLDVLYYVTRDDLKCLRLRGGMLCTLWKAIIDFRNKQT

Row | SMILES | IC50
1 | CCCN(CCC)c1[nH]cnc2ncnc1-2 | 25.8 µM
2 | CC(C)(C)c1ccc(C(=O)Nc2cn3c(ccc4ccccc43)n2)cc1 | 0.015 µM
3 | CC(C)(C(=O)O)c1ccc(C(=O)Nc2cn3cc(-c4ccsc4)ccc3n2)cc1 | 0.019 µM
4 | CC(C)(C)c1ccc(C(=O)Nc2cn3cc(-n4ccnc4)ccc3n2)cc1 | 0.014 µM
5 | CSc1nc(N)nc2[nH]cnc12 | 13.3 µM
6 | c1nc(N2CCCCC2)c2nc[nH]c2n1 | 17 µM
7 | COc1ccc(OC)c(Nc2nc(N)nc3[nH]cnc23)c1 | 18.9 µM

target: T2, Mitogen-activated protein kinase kinase kinase 5 (Homo sapiens) (UniProt Q99683); test: Inhibition of ASK1 assessed as phosphorylated fluorescent peptide at 10 uM by mobility shift assay
T2 sequence (whole entry): T1 sequence (Q99683 whole entry)

Row | SMILES | inhibition
8 | CCCN(CCC)c1[nH]cnc2ncnc1-2 | > 50%
9 | COc1cccc(C(=O)NN2CC(=O)C(c3nc4ccccc4c(=O)[nH]3)=C2N)c1 | > 30%
10 | O=C(Nc1ccc(N2CCOCC2)cc1)c1n[nH]c2ccccc12 | > 30%
11 | CNc1nc(N)c(C(=O)c2ccc(F)cc2)s1 | > 30%
12 | NC(=O)c1ccc(-n2cnc3ccccc32)cc1 | > 30%
13 | CN(C)c1ncnc2nc[nH]c12 | > 30%
14 | Nc1nc(N)c2c(Cl)c(Br)ccc2n1 | > 30%
15 | CSc1nc(N)nc2[nH]cnc12 | > 50%
16 | Cc1c(C)n(C2CCCC2)c2nc[nH]c(=O)c12 | > 30%
17 | CNc1nc(-c2cccnc2)cn2ccnc12 | > 30%
18 | Nc1nc(Nc2cccc3ccccc23)c2nc[nH]c2n1 | > 30%
19 | c1nc(N2CCCCC2)c2nc[nH]c2n1 | > 50%
20 | CS(=O)(=O)c1ccc(C(=O)Nc2nc3ccccc3[nH]2)cc1[N+](=O)[O-] | > 30%
21 | CCNc1nc(N)c(C(C)=O)s1 | > 30%
22 | Nc1nc(SCc2c(Cl)cccc2Cl)c2nc[nH]c2n1 | > 30%
23 | Nc1nc(SCCCCC(O)O)c2nc[nH]c2n1 | > 30%
24 | Nc1nc(OCC2CCCCC2)c2nc[nH]c2n1 | > 50%
25 | O=C(Nc1nc2ccccc2[nH]1)c1ccc2ncsc2c1 | > 30%
26 | COc1ccc(OC)c(Nc2nc(N)nc3[nH]cnc23)c1 | > 50%
27 | Nc1nc(OCc2ccccc2)c2nc[nH]c2n1 | > 30%
28 | Cc1c(C)n(CC(C)C)c2ncnc(N)c12 | > 30%
